Source: patent US6573248B2, “Monocyclic L-nucleosides, analogs and uses thereof” (ICN Pharmaceuticals, Inc., priority 1996, dated 2003)

Molecule `NC(=O)c1nn([C@H]2O[C@@H](CO)[C@H](O)[C@@H]2O)nc1C(N)=O` [Compound 32, 2-β-L-Ribofuranosyl-1,2,3-triazole-4,5-dicarboxamide] has a melting point of 210 to 212 °C. `NC(=O)c1cn([C@H]2O[C@@H](CO)[C@H](O)[C@@H]2O)ccc1=O` [Compound 34, 1-β-L-ribofuranosylpyridine-4-one-3-carboxamide] gave a melting point of 209 to 211 °C. Molecule `NC(=O)c1nc([C@H]2O[C@@H](CO)[C@H](O)[C@@H]2O)n[nH]1` [Compound 68, 3-β-L-Ribofuranosyl-1,2,4-triazole-5-carboxamide] has a melting point of 193 to 195 °C. `Cc1cc(=O)[nH]c(=O)n1[C@H]1O[C@@H](CO)[C@H](O)[C@@H]1O` [Compound 41, 1-β-L-Ribofuranosyl-6-methyluracil] showed a melting point of 175 to 177 °C. With `NC(=O)c1ncn([C@H]2O[C@@H](CO)[C@H](O)[C@@H]2O)c1C(N)=O` [Compound 48, 1-β-L-Ribofuranosylimidazole-4,5-dicarboxamide] the melting point was 224 to 226 °C.
